Test results: patent US12398111B2, “Triazine compounds and pharmaceutical use thereof” (Japan Tobacco Inc., priority 2014, dated 2025)
pIC50: −log10 of the molar value.

target: T1, human mPGES-1 (Homo sapiens, UniProt O14684); experiment: Evaluation of human mPGES-1 enzyme inhibitory activity (PGE2 measured by HTRF, microsome fraction of CHO-S cells expressing human mPGES-1); type: biochemical; details: IC50 value; microsome fraction of CHO-S cells expressing human mPGES-1, PGE2 by HTRF
T1 construct: made in house; host or cells: FreeStyle CHO-S cells (Chinese hamster ovary), transient transfection with pcDNA3.1(+)/human mPGES-1; microsome fraction used
T1 sequence (O14684 1-152): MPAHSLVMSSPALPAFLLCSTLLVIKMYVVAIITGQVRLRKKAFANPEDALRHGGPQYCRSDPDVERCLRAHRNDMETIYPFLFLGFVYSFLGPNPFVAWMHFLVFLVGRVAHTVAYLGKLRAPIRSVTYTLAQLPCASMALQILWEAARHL
Protocol: That is, the amount of PGE2 produced by human mPGES-1 in the presence of a test article was measured by the HTRF (homogeneous time resolved fluorescence) method, based on which the human mPGES-1 enzyme inhibitory activity of the test article was determined.
1) Preparation of Human mPGES-1 Expressing Cell Microsome Fraction
A DNA fragment containing human mPGES-1, which is added with a BamHI recognition cleavage sequence immediately before the translation initiation codon and an EcoRI recognition cleavage sequence immediately after the translation termination codon was amplified by the PCR (Polymerase Chain Reaction) method using a human mPGES-1 expression plasmid DNA (pME-18S/iPGES-1) prepared in-house as a template. The purified DNA fragment was digested with BamHI and EcoRI, and ligated to pcDNA3.1(+) (Invitrogen, model number V790-20), similarly digested with BamHI and EcoRI, by using a DNA Ligation kit ver.2.1 (Takara Bio, model number 6022). The human mPGES-1 expression plasmid DNA was isolated from Escherichia coli DH5a (TOYOBO, model number DNA-903) transformed with the obtained ligation product. The base sequence of human mPGES-1 cloned to a vector was determined by the Dye Terminator method by using BigDye Terminator v3.1 Cycle Sequencing Kit (Applied Biosystems, #4337455).
Human mPGES-1 expression plasmid DNA was transfected into Chinese hamster ovary-derived cells (FreeStyle CHO-S Cell, Invitrogen, #R800-07) by using a transgene reagent (FreeStyle MAX Reagent (Invitrogen, #16447-100)), and cultured with shaking (8% CO2, 37° C.) in a medium containing 8 mmol/L L-glutamine (GIBCO FreeStyle CHO Expression Medium, Invitrogen, #12651-022) for 48 hr.
The CHO-S cells were suspended in Homogenate Buffer (100 mmol/L potassium phosphate (pH 7.4), 250 mmol/L Sucrose, 100 mmol/L EDTA, complete EDTA free (Roche, #1873580)). Using an ultrasonic disruptor UD-201 (Tomy Seiko), the suspended cells were disrupted at output:3, duty cycle:50 for 30 seconds. The precipitate was removed by centrifugation (1,000×g, 5 min, 4° C.), is and the supernatant was centrifuged (5,000×g, 10 min, 4° C.). The supernatant was further centrifuged (105,000×g, 60 min, 4° C.). The obtained precipitate was suspended in Resuspension Buffer (100 mmol/L potassium phosphate (pH 7.4), 250 mmol/L sucrose, 100 mmol/L EDTA, 10% glycerol) to give a microsome fraction.
The protein concentration of the microsome fraction was measured by the Bradford method (Protein Assay Kit, Bio-Rad). The microsome fraction was rapidly frozen in liquid nitrogen and preserved at −80° C. Human mPGES-1 in the microsome fraction was detected by Western Blot using rabbit anti-mPGES-1 polyclonal antibody (ThermoFisher Scientific, #PA1-10264).
2) Evaluation of Human mPGES-1 Enzyme Inhibitory Activity
A test article solution diluted with 0.1 mol/L potassium phosphate, pH 7.4 (hereinafter to be referred to as KPB) or DMSO (Nacalai Tesque, #13407-45) was added at 5 μL/well to 96 well V-bottom plate (Corning, #3363). The final DMSO concentration during the reaction was set to 2% (v/v). Furthermore, a microsome fraction of CHO-S cells expressing human mPGES-1, which was diluted with reduced GSH (12.5 mmol/L KPB solution, SIGMA, #G6529-25G) such that the protein concentration was 5 μg/mL, was added at 20 μL/well. The amount of the microsome fraction used is the amount of microsome fraction within a range where the amount of PGE2 produced under the reaction conditions shown below and the amount of microsome fraction used show linearity. To the blank was added reduced GSH (12.5 mmol/L KPB solution) at 20 μL/well.

| Structure (SMILES) | pIC50 |
| --- | --- |
| CO[C@](C)(C(=O)NC(C)c1ccc(Cl)c(-c2nc(O)nc(-c3ccc(F)c(C)c3)n2)c1)C(F)(F)F (single isomer, unassigned) [Example 1-188] | 8.80 |
| CO[C@](C)(C(=O)NC(C)c1ccc(Cl)c(-c2nc(O)nc(-c3ccc(F)c(C)c3)n2)c1)C(F)(F)F (single isomer, unassigned) [Example 1-189] | 5.96 |
| CO[C@](C)(C(=O)NC(C)c1ccc(Cl)c(-c2nc(O)nc(-c3ccc(OCC(C)(C)C)cc3)n2)c1)C(F)(F)F (single isomer, unassigned) [Example 1-200] | 8.00 |
| CO[C@](C)(C(=O)NC(C)c1ccc(Cl)c(-c2nc(O)nc(-c3ccc(OCC(C)(C)C)cc3)n2)c1)C(F)(F)F (single isomer, unassigned) [Example 1-201] | 6.51 |
| CC1CCC(CO)(C(=O)NCc2ccc(Cl)c(-c3nc(O)nc(-c4ccccc4)n3)c2)CC1 (single isomer, unassigned) [Example 1-256] | 7.01 |
| CC1CCC2(CC1)CN(Cc1ccc(Cl)c(-c3nc(O)nc(-c4ccccc4)n3)c1)C2=O (single isomer, unassigned) [Example 1-257] | 7.77 |
| CC(C)(C)C1CCC2(CC1)CN(Cc1ccc(Cl)c(-c3nc(O)nc(-c4ccccc4)n3)c1)C2=O (single isomer, unassigned) [Example 1-266, 7-tert-butyl-2-[4-chloro-3-(4-hydroxy-6-phenyl-1,3,5-triazin-2-yl)benzyl]-2-azaspiro[3.5]nonan-1-one] | 7.96 |
| COC1CCC2(CC1)CN(Cc1ccc(Cl)c(-c3nc(O)nc(-c4ccccc4)n3)c1)C2=O (single isomer, unassigned) [Example 1-267] | 6.82 |
| Cc1ccc(F)cc1-c1nc(O)nc(-c2ccc(C(F)(F)F)cc2)n1 [Example 1-1] | 6.09 |
| Cc1ccc(C)c(-c2nc(O)nc(-c3ccc(C(F)(F)F)cc3)n2)c1 [Example 1-2] | 6.86 |
| Cc1ccc(Cl)cc1-c1nc(O)nc(-c2ccc(C(F)(F)F)cc2)n1 [Example 1-3] | 6.79 |
| Cc1ccc(Cl)c(-c2nc(O)nc(-c3ccc(C(F)(F)F)cc3)n2)c1 [Example 1-4] | 7.60 |
| Oc1nc(-c2ccc(C(F)(F)F)cc2)nc(-c2cc(OC(F)(F)F)ccc2Cl)n1 [Example 1-5] | 6.17 |
| COc1ccc(Cl)c(-c2nc(O)nc(-c3ccc(C(F)(F)F)cc3)n2)c1 [Example 1-6] | 6.79 |
| Oc1ccc(Cl)c(-c2nc(O)nc(-c3ccc(C(F)(F)F)cc3)n2)c1 [Example 1-7] | 6.19 |
| O=C(O)c1ccc(Cl)c(-c2nc(O)nc(-c3ccc(C(F)(F)F)cc3)n2)c1 [Example 1-8] | 4.57 |
| Cc1ccc(C(F)(F)F)cc1-c1nc(O)nc(-c2ccc(C(F)(F)F)cc2)n1 [Example 1-9] | 6.22 |
| OCc1ccc(Cl)c(-c2nc(O)nc(-c3ccc(C(F)(F)F)cc3)n2)c1 [Example 1-12] | 7.82 |
| CC(=O)c1ccc(Cl)c(-c2nc(O)nc(-c3ccc(C(F)(F)F)cc3)n2)c1 [Example 1-13] | 6.40 |
| CCc1ccc(C)c(-c2nc(O)nc(-c3ccc(C(F)(F)F)cc3)n2)c1 [Example 1-14] | 5.85 |
| CC(C)(C)OC(=O)NCc1ccc(Cl)c(-c2nc(O)nc(-c3ccc(C(F)(F)F)cc3)n2)c1 [Example 1-15] | 8.13 |
| CC(=O)NCc1ccc(Cl)c(-c2nc(O)nc(-c3ccc(C(F)(F)F)cc3)n2)c1 [Example 1-16] | 8.00 |
| NCc1ccc(Cl)c(-c2nc(O)nc(-c3ccc(C(F)(F)F)cc3)n2)c1 [Example 1-17] | 6.13 |
| CC(O)c1ccc(Cl)c(-c2nc(O)nc(-c3ccc(C(F)(F)F)cc3)n2)c1 (stereo not drawn) [Example 1-18] | 6.94 |
| COCc1ccc(Cl)c(-c2nc(O)nc(-c3ccc(C(F)(F)F)cc3)n2)c1 [Example 1-19] | 6.39 |

| Structure (SMILES) | pIC50 |
| --- | --- |
| CS(=O)(=O)NCc1ccc(Cl)c(-c2nc(O)nc(-c3ccc(C(F)(F)F)cc3)n2)c1 [Example 1-20] | 8.80 |
| CC(=O)N(C)Cc1ccc(Cl)c(-c2nc(O)nc(-c3ccc(C(F)(F)F)cc3)n2)c1 [Example 1-21] | 6.01 |
| COC(=O)NCc1ccc(Cl)c(-c2nc(O)nc(-c3ccc(C(F)(F)F)cc3)n2)c1 [Example 1-22] | 8.57 |
| O=C(O)Cc1ccc(Cl)c(-c2nc(O)nc(-c3ccc(C(F)(F)F)cc3)n2)c1 [Example 1-23] | 6.87 |
| CC(C)(C)C(=O)NCc1ccc(Cl)c(-c2nc(O)nc(-c3ccc(C(F)(F)F)cc3)n2)c1 [Example 1-24] | 9.22 |
| CC(=O)OCc1ccc(Cl)c(-c2nc(O)nc(-c3ccc(C(F)(F)F)cc3)n2)c1 [Example 1-25] | 6.97 |
| CNC(=O)Cc1ccc(Cl)c(-c2nc(O)nc(-c3ccc(C(F)(F)F)cc3)n2)c1 [Example 1-26] | 7.74 |
| CCC(=O)NCc1ccc(Cl)c(-c2nc(O)nc(-c3ccc(C(F)(F)F)cc3)n2)c1 [Example 1-27] | 9.00 |
| CC(C)C(=O)NCc1ccc(Cl)c(-c2nc(O)nc(-c3ccc(C(F)(F)F)cc3)n2)c1 [Example 1-28] | 9.22 |
| O=C(NCc1ccc(Cl)c(-c2nc(O)nc(-c3ccc(C(F)(F)F)cc3)n2)c1)C1CCCCC1 [Example 1-29] | 8.96 |
| O=C(NCc1ccc(Cl)c(-c2nc(O)nc(-c3ccc(C(F)(F)F)cc3)n2)c1)C1CCCC1 [Example 1-30] | 9.22 |
| CCS(=O)(=O)NCc1ccc(Cl)c(-c2nc(O)nc(-c3ccc(C(F)(F)F)cc3)n2)c1 [Example 1-31] | 9.00 |
| CC(C)(C)S(=O)(=O)NCc1ccc(Cl)c(-c2nc(O)nc(-c3ccc(C(F)(F)F)cc3)n2)c1 [Example 1-32] | 9.15 |
| CC(C)S(=O)(=O)NCc1ccc(Cl)c(-c2nc(O)nc(-c3ccc(C(F)(F)F)cc3)n2)c1 [Example 1-33] | 9.10 |
| CN(C)C(=O)NCc1ccc(Cl)c(-c2nc(O)nc(-c3ccc(C(F)(F)F)cc3)n2)c1 [Example 1-34] | 8.23 |
| CNC(=O)NCc1ccc(Cl)c(-c2nc(O)nc(-c3ccc(C(F)(F)F)cc3)n2)c1 [Example 1-35] | 7.66 |
| CCCC(=O)NCc1ccc(Cl)c(-c2nc(O)nc(-c3ccc(C(F)(F)F)cc3)n2)c1 [Example 1-36] | 9.15 |
| CC(C)CC(=O)NCc1ccc(Cl)c(-c2nc(O)nc(-c3ccc(C(F)(F)F)cc3)n2)c1 [Example 1-37] | 9.10 |
| CCOC(=O)NCc1ccc(Cl)c(-c2nc(O)nc(-c3ccc(C(F)(F)F)cc3)n2)c1 [Example 1-38] | 8.82 |
| CC(C)OC(=O)NCc1ccc(Cl)c(-c2nc(O)nc(-c3ccc(C(F)(F)F)cc3)n2)c1 [Example 1-39] | 8.72 |
| CN(C)C(=O)Cc1ccc(Cl)c(-c2nc(O)nc(-c3ccc(C(F)(F)F)cc3)n2)c1 [Example 1-40] | 5.65 |
| CC(C)(C)NC(=O)Cc1ccc(Cl)c(-c2nc(O)nc(-c3ccc(C(F)(F)F)cc3)n2)c1 [Example 1-41] | 8.64 |
| O=S(=O)(NCc1ccc(Cl)c(-c2nc(O)nc(-c3ccc(C(F)(F)F)cc3)n2)c1)C1CCCC1 [Example 1-42] | 9.00 |
| CC(C)(C)C(=O)NCc1ccc(Cl)c(-c2nc(O)nc(-c3ccccc3)n2)c1 [Example 1-43] | 8.70 |

same assay, conditions: at 30 μM test article

| Structure (SMILES) | inhibition at 30 µM [%] |
| --- | --- |
| Cc1ccc(C(=O)O)cc1-c1nc(O)nc(-c2ccc(C(F)(F)F)cc2)n1 [Example 1-10] | 5 |
| Cc1ccc(C(N)=O)cc1-c1nc(O)nc(-c2ccc(C(F)(F)F)cc2)n1 [Example 1-11] | 42 |
